Data taken from US4418068A, “Antiestrogenic and antiandrugenic benzothiophenes” (Eli Lilly and Company, priority 1981, dated 1983).

Key:
estrogenic response = experiment: Estrogenic Response Test, immature rats (uterine weight); type: in vivo, immature 40-45 g. female rats; conditions: Experiment C; total dose 3 mg., s.c.
Method: The first test reported below is used to determine the estrogenic potency of compounds. It is well known that many compounds having antiestrogenic activity also, typically, have estrogenic activity. As has been explained, estrogenic activity is a liability in an antiestrogen, and thus it is important to identify antiestrogens having a minimum amount of estrogenic activity. This test was conducted with immature 40-45 g. female rats, immature 11-13 g. mice, and adult ovariectomized mice. The rats were tested in groups of six, and mice in groups of ten. All of the laboratory animals were from standardized strains and were equilibrated to the laboratory before the test started. Each test was begun by administering the test compound daily for three days, as a subcutaneous injection or by oral gavage, as indicated below in the reports of individual experiments. Untreated control animals were included in each experiment, along with animals to which estradiol was administered subcutaneously. The estradiol-treated animals provided positive controls, showing the physiological effect of a potent estrogen on the individual group of animals used in the experiment. […] The test animals were treated for three days and sacrificed on the fourth day, and the uteri were removed, freed of extraneous tissue, and blotted with paper towels. The uteri were weighed to the nearest 0.1 mg. The tables below report the results of representative experiments. The doses of estradiol and of the compound of this invention are given as the total of the three daily doses. The uterine weights are given, in mg., as the means of all of the organ weights of the animals in a group. Compounds are referred to by their example numbers above.

[1] = Stability of the product on observation after several days; type: physicochemical
[2] = test system: estrogenic response of estradiol; experiment: Antiestrogenic Test, immature rats (uterine weight); type: in vivo; conditions: Experiment I, 3 mg., s.c. + estradiol 0.3 mcg.
Method: This test was conducted with immature 40-45 g. female rats, immature 11-13 g. mice, and adult ovariectomized mice. The rats were tested in groups of six, and mice in groups of ten. All of the laboratory animals were from standardized strains and were equilibrated to the laboratory before the test started. Each test was begun by administering the test compound daily for three days, as a subcutaneous injection or by oral gavage, as indicated below in the reports of individual experiments.
The test animals were treated for three days and sacrificed on the fourth day, and the uteri were removed, freed of extraneous tissue, and blotted with paper towels. The uteri were weighed to the nearest 0.1 mg.
The uterine weights are given, in mg., as the means of all of the organ weights of the animals in a group. Compounds are referred to by their example numbers above.
The same standardized types of laboratory animals which were used in the experiments described above were also used in these experiments. […] Untreated control animals were used in each experiment. […] The dosage and sacrifice schedule, and the method of determining uterine weights and reporting data, were the same as the methods described above under Test 1.

uterine epithelial cells = conditions: known side-effect of earlier anti-estrogens; cited from earlier work

Compound | Uterine weight (estrogenic response) | hydrolysis of ester groups [1] | Uterine weight [2] | effect on uterine epithelial cells (uterine epithelial cells)
O=C(O)C(F)(F)F.O=C(c1ccc(OCCN2CCCCC2)cc1)c1c(-c2ccc(OC(=O)C(F)(F)F)cc2)sc2cc(OC(=O)C(F)(F)F)ccc12 [Example 9, 6-trifluoroacetoxy-2-(4-trifluoroacetoxyphenyl)-3-[4-(2-piperidinoethoxy)benzoyl]benzo[b]thiophene, trifluoroacetate] | 31.3 mg | some hydrolysis of one or both ester groups had occurred | 38.1 mg | 
CC/C(=C(\c1ccccc1)c1ccc(OCCN(C)C)cc1)c1ccccc1 [Tamoxifen, 1-(4-β-dimethylaminoethoxyphenyl)-1,2-diphenylbut-1-ene] |  |  |  | causes abnormal growth of uterine epithelial cells
